{"source": "patent US20220339135A1", "about": "“COMPOSITIONS AND METHODS FOR MODULATING AN INFLAMMATORY RESPONSE” (Enzychem Lifesciences Corporation, priority 2019, published 2022)", "key": {"[1]": {"tested_on": "SR-A silenced cells", "assay": "Phagocytosis and ROS in SR-A silenced cells", "format": "cell-based"}, "[2]": {"tested_on": "intracellular calcium in dHL-60 cells", "assay": "Fluo-4 calcium assay", "format": "cell-based, human", "protocol": "Human leukemia line (HL-60) cells were differentiated (dHL-60) to neutrophil-like cells in the culture medium with the addition of 1.3% DMSO (Sigma) for 5 days in a humidified atmosphere at 37° C. without changing the medium. dHL-60 cells (2×10^5 cells/mL) were loaded with 5 μM fluo-4 AM for 45 minutes and washed three times with warmed modified (37° C.) HBSS buffer (137.93 mM NaCl, 5.33 mM KCl, 2 mM CaCl2), 1 mM MgSO4, 2.38 mM HEPES, 5.5 mM glucose, pH to 7.4). The cells were seeded on black-walled 96-well plates and then treated with vehicle (0.1% DMSO), ionomycin (5 μM; positive control) or PLAG (100 μg/mL) just before measurement. Baseline fluorescence was measured before treatment, and fluorescence was read every 20 s for 700 s using an excitation wavelength of 494 nm, an emission wavelength of 516 nm in a FlexStation 3 microplate reader (Molecular Devices). Fluorescence values were reported as F/Fo according to the calculation: [ΔF=(494 nm)f/(516 nm)f−(494 nm)0/(516 nm)0]. For studies in 0 mM external calcium, the cells were loaded as mentioned earlier. After being loaded, the cells were washed four times with calcium-free HBSS. The remainder of the study was carried out in calcium-free HBSS.\n(§1) HL-60 cells were differentiated (dHL-60) to neutrophil-like cells in the culture medium with the addition of 1.3% DMSO (Sigma) for 5 days in a humidified atmosphere at 37° C. without changing the medium. dHL-60 cells (2×10^5 cells/mL) were loaded with 5 μM fluo-4 AM for 45 minutes and washed three times with warmed modified (37° C.) HBSS buffer (137.93 mM NaCl, 5.33 mM KCl, 2 mM CaCl2, 1 mM MgSO4, 2.38 mM HEPES, 5.5 mM glucose, pH to 7.4). […] Baseline fluorescence was measured before treatment, and fluorescence was read every 20 seconds for 700 seconds using an excitation wavelength of 494 nm, an emission wavelength of 516 nm in a FlexStation 3 microplate reader (Molecular Devices). Fluorescence values were reported as F/Fo according to the calculation: [ΔF=(494 nm)f/(516 nm)f−(494 nm)0/(516 nm)0]. […]\nas §1, with “s” for “seconds”, “Devices).” for “Devices). Fluorescence values were reported as F/Fo according to the calculation: [ΔF=(494 nm)f/(516 nm)f−(494 nm)0/(516 nm)0].”"}, "[3]": {"assay": "PLAG uptake in the cisterna chyli (TG colorimetric assay)", "format": "in vivo, mice", "protocol": "Balb/c mice were purchased from Koatech Co. (Pyungtaek, Republic of Korea) and maintained under specific pathogen-free conditions. All animal experimental procedures were performed in accordance with the Guide for the Care and Use of Laboratory Animals. The study included 30 male Balb/c mice (mean age: 9 weeks, range: 8 to 10 weeks). For the time point study (experiment 1), mice were divided into 5 groups, with 3 mice per group. Mice were given a single administration of PLAG orally (2500 mg/kg BW) in a volume of 150 μL. And then mice are sacrificed after various time intervals, 0, 15, 30 and 60 minutes. To determine the difference in PLAG concentration (experiment 2), mice were divided into 5 groups, with 3 mice per group. They were given a single administration of PLAG orally (50, 250, 500, and 2500 mg/kg BW) in a volume of 150 μL, then sacrificed after 1 h post-injection.\nThe blood sample was obtained under anesthesia by heart puncture. Serum samples were separated by centrifuge 3,000 rpm for 10 minutes and stored at −80° C. for analysis. Lymph fluid from the cisterna chyli was collected according to the methods described by Masayuki, lymph fluid in cisterna chyli appears milky white color with a high concentration of triglyceride (TG) and located along the abdominal vena cava and aorta on the cranial side of the renal vein. A 30 ½-gauge syringe was carefully inserted into cisterna chyli. Then recovered the lymphatic fluid, diluted liquid with 10 uL of phosphate-buffered saline (Welgene, Gyeongsangbuk-do, Republic of Korea). Diluted lymph fluid samples were kept frozen for assay.\nTriglyceride in blood and lymph fluid was measured using a commercial assay kit (Wako Diagnostics, Osaka, Japan). Because PLAG has structural similarities to TGs containing glycerol backbone, this method may be applicable to PLAG detection. Multi calibrator lipids (Wako) were used for standard reagent. The absorbance was read at 650 nm using an ELISA microplate reader (Molecular Devices Corporation).\n2500mpk of PLAG was orally administered to diet mice whose body weight is 25 g, absorbed PLAG was collected from cisterna chyli at 1 hr. Absorbed PLAG was evaluated by TG colorimetric assay. The TG concentration was multiplied by the dilution factor and the conversion factor, which is the coefficient required to convert to triglyceride concentration to the PLAG concentration. Administered 62.5 mg of PLAG was absorbed through enterocytes and detected 28.2 mg of PLAG at cisterna chyli within 1 hour with about 50% of absorptive efficacy (FIG. 21E)."}}, "data": [{"smiles": "CCCCC/C=C\\C/C=C\\CCCCCCCC(=O)OC(COC(C)=O)COC(=O)CCCCCCCCCCCCCCC", "note": "(racemic) [PLAG, 1-palmitoyl-2-linoleoyl-3-acetylglycerol]", "values": [{"measurement": "PAMP molecules-induced intracellular ROS", "setting": "[1]; SR-A silenced cells", "result": "does not increase"}, {"measurement": "enhanced phagocytosis by PLAG", "setting": "[1]; knockdown of SR-A", "result": "does not show the enhanced phagocytosis"}, {"measurement": "cytosolic calcium of dHL-60 cells", "setting": "[2]; PLAG 100 μg/mL, ionomycin 5 μM", "result": "increased"}, {"measurement": "intracellular calcium levels, co-treatment with imiquimod", "setting": "[2]; vs imiquimod alone, extracellular calcium-free and containing condition", "result": "significantly increased"}, {"measurement": "PLAG detected at cisterna chyli / lymph fluid", "setting": "[3]; 62.5 mg administered (2500mpk, 25 g mice), 1 hr", "result": 28.2, "unit": "mg"}, {"measurement": "time absorbed PLAG observed at the cisterna chyli", "setting": "[3]; 50, 250, 500, 2500mpk, dose-dependent", "result": "≤ 1", "unit": "h"}, {"measurement": "time PLAG detected in cisterna chyli", "setting": "[3]; 2500mpk, mice fasted 6 hours", "result": 60, "unit": "min"}, {"measurement": "absorptive efficacy", "setting": "[3]; cisterna chyli within 1 hour", "result": "about 50%"}]}]}
